We go through 10 compounds from article PMC11727040, “Monophosphate Derivatives of Luteolin and Apigenin as Efficient Precursors with Improved Oral Bioavailability in Rats” (Antioxidants, 2024).

Values after ≈ are worked out from the molar mass of the structure shown. Where two headings read alike, the source gives them in different places.

Data set [1] in a line: Stability in simulated gastric fluid (SGF) and simulated intestinal fluid (SIF). In kind it is in vitro ADME. To be noted: SGF with pepsin and SIF with pancreatin pH 6.8, 125 mg/L, 37 °C. The protocol:
For the SGF solution, 5 g of pepsin was dissolved in 1 L of deionized water with the addition of hydrochloric acid to achieve a pH of 1.8. The SIF solution consisted of 6.8 g of monopotassium phosphate and 10 g of pancreatin dissolved in 1 L of deionized water, maintaining a pH of 6.8.

The target of data set [2] is T1, Caco-2 cell apical membrane-associated alkaline phosphatase (ALP) (Homo sapiens, UniProt P09923).
T1 construct: The Caco-2 cells (human colon adenocarcinoma, clone of Caco-2) were obtained from the Bioresource Collection and Research Center; endogenous in cells; host or cells: Caco-2 (human colon adenocarcinoma) cells, intact, 5 days in culture
T1 sequence (P09923 20-503 limits assumed): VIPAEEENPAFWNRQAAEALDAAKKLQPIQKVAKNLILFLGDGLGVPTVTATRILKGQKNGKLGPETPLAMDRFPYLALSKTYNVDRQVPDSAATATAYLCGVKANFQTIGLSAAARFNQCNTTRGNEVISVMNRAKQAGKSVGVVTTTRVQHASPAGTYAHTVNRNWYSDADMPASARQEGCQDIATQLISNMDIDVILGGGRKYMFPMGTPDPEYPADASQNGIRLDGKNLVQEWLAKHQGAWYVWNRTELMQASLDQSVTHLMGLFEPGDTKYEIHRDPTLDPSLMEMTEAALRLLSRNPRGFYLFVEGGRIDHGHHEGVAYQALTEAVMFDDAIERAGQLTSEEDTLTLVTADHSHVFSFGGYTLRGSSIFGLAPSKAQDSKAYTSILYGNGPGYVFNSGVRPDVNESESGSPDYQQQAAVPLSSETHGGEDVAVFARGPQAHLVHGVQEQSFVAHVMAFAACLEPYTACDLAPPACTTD
Put plainly: Dephosphorylation by Caco-2 cell apical membrane-associated ALP. The class given is cell-based. The settings on record: Caco-2 cells, HBSS, 37 °C, 120 min incubation, initial concentration 20 μM, read-out: elimination half-life (T1/2) of dephosphorylation. Here is the method: The Caco-2 cells (human colon adenocarcinoma, clone of Caco-2) were obtained from the Bioresource Collection and Research Center, Hsinchu, Taiwan. Caco-2 cells were cultured according to previously established protocols. For the dephosphorylation study, the cells were seeded onto 6-well plates at a density of 3.0 × 10^5 cells per well in 2 mL of fresh medium. The medium was refreshed every 48 h. […] The plates were then incubated at 37 °C, and aliquots of 200 μL were collected at 15, 30, 60, and 120 min. […] The supernatants were analyzed by HPLC to quantify the relative content of LutPs to Lut and ApnPs to Apn. To assess the activity of human intestinal alkaline phosphatase (ALP), a positive control of fosphenytoin, a phenytoin phosphate prodrug, was used.
The HPLC system employed in this study consisted of the Waters Alliance 2695 separation module (Waters, Milford, MA, USA), a YMC-Pack ODS-AM C18 column (4.6 × 250 mm, 5 µm) with a guard cartridge (Hichrom 5C18, Berkshire, UK) and a Waters 2487 Dual-Absorbance Detector (Waters, Milford, MA, USA). Chromatographic separation was conducted at a temperature of 30 °C, utilizing a linear gradient mobile phase consisting of 0.1% phosphoric acid in H2O (solvent A) and 0.1% phosphoric acid in acetonitrile (solvent B). The elution gradient programs for quantifying each compound are detailed in Supplementary Materials Table S1. Luteolin and its derivatives were detected at a wavelength of 354 nm, while apigenin and its derivatives were detected at a wavelength of 270 nm, and fosphenytoin at 210 nm. The quantitation was conducted using the external standard method with calibration curves, and the quality was ensured by maintaining an R^2 value exceeding 0.99.

Data set [3] is described as follows: Oral pharmacokinetics of Apn, Apn7G and ApnPs in SD rats. The class given is in vivo, Sprague Dawley (SD) rats. The protocol: (§1) (Taipei, Taiwan). and housed individually. The facilities were maintained at 25 °C, at constant humidity, and a 12 h light/dark cycle with ad libitum access to food and water and acclimated for at least 7 days prior to any experiments. Rats were fasted for 24 h before the experiments, with water freely available. For the pharmacokinetic study, rats were randomly assigned to three groups for the tests (n = 4 for Lut-relevant groups; n = 4-5 for Apn-relevant groups). […] The Apn-relevant groups received Apn aqueous suspension, Apn7G aqueous suspension, or ApnPs solution. Dosages were designed as 174.7 μmol/kg for Lut and 185.02 μmol/kg for Apn, based on the human dietary supplement dosage of 500 mg/day, translated by the body surface area index as per FDA guidelines. […] Lut and Apn were quantified in biological samples after enzymatic hydrolysis of their conjugated forms. The plasma was acidified to pH 5 by adding 10 μL of 0.5 M acetate buffer. […] The mixture was fractionated using a Sep-Pak C18 cartridge (Waters, Milford, MA, USA), eluted in order with 0.01 M oxalic acid, water/methanol/0.5 M oxalic acid (88:10:2), distilled water, and 100% methanol. The methanol fraction was adjusted to a constant volume of 500 μL and filtered with a 0.22 μm membrane to remove insoluble matter, and, subsequently, the filtrate underwent UPLC-MS/MS. The levels of Lut and Apn in the plasma were quantified using a Waters ACQUITY UPLC I-Class system (Waters, Milford, MA, USA) equipped with an XEVO TQS-microTriple-Quadrupole Tandem Mass Spectrometer (Waters, Milford, MA, USA). Chromatographic separation was achieved using a Thermo Hypersil GOLD aQ C18 (50 × 2.1 mm, 1.9 μm) column (Thermo Fisher Scientific, Waltham, MA, USA). The injection volume was 3 μL. […] The temperature of the column oven was set at 40 °C. The MRM mode in negative mode was used, and the MS parameter was set as follows. The most intense precursor-to-product transitions were selected: m/z 285→133 for luteolin, and m/z 269→107 and m/z 269→41 for apigenin and genistein, respectively. The source voltage was 1500 V. The desolvation temperature was 400 °C, and the desolvation gas flow was 800 L/h. The source temperature was 150 °C. The contents of Lut and Apn were calculated by the calibration curve and the response obtained by the peak area of them against the internal standard. Details on the multiple reaction monitoring (MRM) conditions, elution gradient programs, and UPLC method validation are provided in the Supplementary Materials Tables S2 and S3. The pharmacokinetic parameters, including maximum concentration (Cmax), time to reach maximum concentration (Tmax), and area under curve (AUC), were determined using the pharmacokinetic software WinNonlin Standard Edition v1.1 (Pharsight Corp., Mountainview, CA, USA).

Data set [4] can be described thus: Aqueous solubility, classical shake-flask method. To be noted: ultrapure water.
Text: Then, the resulting supernatant (the saturated solution) was aliquoted and diluted carefully and properly to perform the quantitative analysis using HPLC.
A short description of data set [5]: Dissolution study, USP apparatus II (paddle method). The class given is physicochemical. The settings on record: for dissolution rate in bile extract solution: bile extract solution as dissolution medium; for dissolution rate after 60 min: standard dissolution medium, 0.05 M phosphate buffer pH 6.8, 37 °C, 20 μM. Here is the method: To investigate the influence of bile extract (comprising bile salts and phospholipids) on the dissolution of these compounds, bile extract solutions were prepared according to the protocol described by Makioka et al. This involved dissolving 12 g of porcine bile extract and 8.4 g of sodium bicarbonate in 1 L of deionized water, which served as the dissolution medium. After the sample was placed in the dissolution medium, 1 mL aliquots of the medium were collected at 5, 10, 20, 30, 45, and 60 min of incubation, and filtered through a 0.2 μm polyethersulfone filter (Pall Corp., New York, NY, USA). Subsequently, 500 μL of each sample was acidified with 5 μL of 2 M acetic acid and stored at −20 °C until HPLC analysis.

Details of data set [6]: method as in PMID 32785007. The settings on record: rats, oral 10 mg/kg; read-out: maximum plasma concentration (Cmax); cited from earlier work.
For data set [7] the following is noted: cited from earlier work.
The nature of data set [8]: Oral pharmacokinetics of Lut, Lut7G and LutPs in SD rats. The class given is in vivo, Sprague Dawley (SD) rats. The protocol: as §1
On the set-up of data set [9]: method as in doi:10.1016/j.jff.2017.05.056. To be noted: rats, 20 μmol/kg (5.725 mg/kg) via gavage; cited from earlier work.
Setting [10] is: rat, in vivo, po, 185.02 umol/kg.
Where [11] appears, read: rat, in vivo, po, 174.7 umol/kg.

Take `O=c1cc(-c2ccc(OP(=O)(O)O)cc2)oc2cc(O)cc(O)c12` [Apn4′P, apigenin 4′-O-phosphate]: in data set [1], the “retained relative content after 240 min of incubation” value (shortened to “retained relative content”) was “over 80%”. Besides, in data set [2], the half-life at 20 μM was 1.07 h.
For the compound `O=c1cc(-c2ccc(O)cc2)oc2cc(O[C@@H]3O[C@H](CO)[C@@H](O)[C@H](O)[C@H]3O)cc(O)c12` [Apn7G, apigenin 7-O-glucoside], in [3] (setting [10]), the “Apn conjugates AUC0–t” value was 13,243.27 nM·h, the “Apn conjugates Tmax” value is 2.00 h, the “Lut (metabolite) conjugates AUC0–t” value amounted to 8.78863 µM·h and the “Lut (metabolite) conjugates Tmax” value is reported as 2.00 h. Moreover, in [3] (setting [10]), the “aglyconic Apn AUC0–t” value came out at 0.37171 µM·h, the “aglyconic Apn Tmax” value came to 0.5 h, the “aglyconic Lut (metabolite) AUC0–t” value amounted to 0.01854 µM·h and the “aglyconic Lut (metabolite) Tmax” value was 1.00 h. For the same compound, in [3] (setting [10]), the “overall Apn AUC0–t” value is recorded as 13,614.98 nM·h, the “overall Apn Tmax” value came to 2.00 h, the “overall Lut (metabolite) AUC0–t” value stood at 8.87017 µM·h and the “overall Lut (metabolite) Tmax” value stood at 2.00 h.
`O=c1cc(-c2ccc(O)cc2)oc2cc(OP(=O)(O)O)cc(O)c12` [Apn7P, apigenin 7-O-phosphate]: the “retained relative content” value in data set [1] is given as 76%. Moreover, in [2], the half-life at 20 μM was 0.73 h.
As usually defined, the solubility is the concentration that dissolves in the medium under given conditions. Low readings indicate a poorly soluble substance, high ones a readily soluble substance. `O=c1cc(-c2ccc(O)cc2)oc2cc(O)cc(O)c12` [Apn, 4′,5,7-trihydroxyflavone] displayed a solubility in data set [4] of 1.2 µg/mL (≈ 4.44 µM). In addition, the “dissolution rate in bile extract solution” value in data set [5] turned out to be 12.5%. Also, in data set [5], the “dissolution rate after 60 min” value is recorded as 0.24%. Further, the Cmax in [6] is 80 nM; in data set [3] (male, Sprague Dawley, 185.02 umol/kg, rat plasma, oral 185.02 µmol/kg, mean ± SE, read-out: aglyconic Apn Cmax), 14 ± 1.27 nM. Besides, the AUC(0-t) in data set [3] (male, Sprague Dawley, 185.02 umol/kg, rat plasma, oral 185.02 µmol/kg, 0 to 10 h, read-out: aglyconic Apn AUC0–t) was 0.113 µM·h. In [3] (rat plasma, oral 185.02 µmol/kg), the “aglyconic Apn Tmax” value is listed as 0.5 h. Also, the absolute oral bioavailability in data set [7] is on record as 0.71%.
As for `O=c1cc(-c2ccc(O)c(OP(=O)(O)O)c2)oc2cc(O)cc(O)c12` [Lut3′P, luteolin 3′-O-phosphate], the “retained relative content” value in data set [1] is on record as “over 80%”. In data set [2], the half-life at 20 μM was 0.693 h.
The matching figures for `O=c1cc(-c2ccc(OP(=O)(O)O)c(O)c2)oc2cc(O)cc(O)c12` [Lut4′P, luteolin 4′-O-phosphate]: “over 80%” and 0.463 h.
With `O=c1cc(-c2ccc(O)c(O)c2)oc2cc(O[C@@H]3O[C@H](CO)[C@@H](O)[C@H](O)[C@H]3O)cc(O)c12` [Lut7G, luteolin 7-O-glucoside], the “AUC0–∞ of overall Lut” value in data set [8] (rat, in vivo, po) worked out at 35.419 µM·h. In addition, in [8] (setting [11]), the “aglyconic luteolin AUC0–t” value turned out to be 2.00935 µM·h, the “aglyconic luteolin Tmax” value was determined as 1.00 h, the “luteolin conjugates AUC0–t” value is recorded as 31,336.03 nM·h and the “luteolin conjugates Tmax” value was found to be 4.00 h. In addition, in data set [8] (setting [11]), the “overall luteolin AUC0–t” value is on record as 33,111.44 nM·h and the “overall luteolin Tmax” value is recorded as 2.00 h.
Regarding `O=c1cc(-c2ccc(O)c(O)c2)oc2cc(OP(=O)(O)O)cc(O)c12` [Lut7P, luteolin 7-O-phosphate], the “retained relative content” value in [1] is 73%. Further, the half-life at 20 μM in data set [2] is 0.287 h.
Usually Tmax stands for the time at which the peak concentration occurs. Compound `O=c1cc(-c2ccc(O)c(O)c2)oc2cc(O)cc(O)c12` [Lut, 3′,4′,5,7-tetrahydroxyflavone] came in with a solubility in [4] of 13 µg/mL (≈ 45.4 µM). Also, in [5], the “dissolution rate in bile extract solution” value worked out at 10.2% and the “dissolution rate after 60 min” value is 3.5%. For the same compound, the absolute oral bioavailability in [7] is given as 4.10%. Moreover, the brain tissue concentration entry in data set [9] is “less than 0.1 nmol/g”. In addition, the Cmax in data set [8] (male, Sprague Dawley, 174.7 umol/kg, rat plasma, oral 174.7 µmol/kg, mean ± SE, read-out: aglyconic luteolin Cmax) stood at 140 ± 194 nM. In data set [8] (male, Sprague Dawley, 174.7 umol/kg, rat plasma, oral 174.7 µmol/kg, zero to 8 h, read-out: aglyconic luteolin AUC0–t), the AUC(0-t) is 0.635 µM·h. In [8] (male, Sprague Dawley, 174.7 umol/kg, rat plasma, oral 174.7 µmol/kg, read-out: aglyconic luteolin Tmax), the Tmax was 1 h.
For the compound `O=C1NC(c2ccccc2)(c2ccccc2)C(=O)N1COP(=O)(O)O` [fosphenytoin], the half-life at 20 μM in data set [2] amounted to 1.67 h.
